In brackets after ≈: the same amount, converted by molar mass. Like-named read-outs stand apart in the source and are kept apart here.
What was measured:
Assay in all cases: MIC by NCCLS broth microdilution, 1100 Japanese clinical isolates 1997-1998
Format in all cases: cell-based
[1] = system: Enterococcus gallinarum; conditions: Enterococcus gallinarum, GALLINARUM
[2] = system: Enterococcus faecium; conditions: for MIC: Enterococcus faecium
[3] = system: Staphylococcus epidermidis; conditions: for MIC50 / MIC90: Staphylococcus epidermidis
[4] = system: Citrobacter freundii
[5] = system: Klebsiella pneumoniae; conditions: Klebsiella pneumoniae (n=35)
[6] = system: Serratia marcescens
[7] = system: Enterococcus faecalis; conditions: for MIC50 / MIC90: Enterococcus faecalis; for MIC90: read-out: MIC90
[8] = Staphylococcus epidermidis oxacillin susceptible (n=35)
[9] = Staphylococcus epidermidis oxacillin resistant (n=43)
[10] = Enterococcus faecalis ciprofloxacin susceptible (n=24)
[11] = Enterococcus faecalis ciprofloxacin resistant (n=15)

NC1CCN(c2nc3c(cc2F)c(=O)c(C(=O)O)cn3-c2ccc(F)cc2F)C1 (stereo not shown) [Tosufloxacin, tosufloxacin]
MIC [1]: 0.125 µg/mL (≈ 0.309 µM)
MIC ([1]; Enterococcus gallinarum (vanC1), strain TMS1, read-out: MIC): 0.25 µg/mL (≈ 0.618 µM)
MIC ([1]; Enterococcus gallinarum (vanC1), strain TMS2, read-out: MIC): 0.5 µg/mL (≈ 1.24 µM)
MIC ([1]; Enterococcus gallinarum (vanC1), strain TMS3, read-out: MIC): 0.5 µg/mL (≈ 1.24 µM)
MIC50 ([2]; Enterococcus faecium (n=39)): > 16 µg/mL
MIC90 ([2]; Enterococcus faecium (n=39)): > 16 µg/mL
MIC ([2]; Enterococcus faecium (vanA) vancomycin resistant, strain TMS1): > 16 µg/mL
MIC ([2]; Enterococcus faecium (vanA) vancomycin resistant, strain TMS2): 2 µg/mL (≈ 4.95 µM)
MIC ([2]; Enterococcus faecium (vanA) vancomycin resistant, strain TMS3): > 16 µg/mL
MIC ([2]; Enterococcus faecium (vanA) vancomycin resistant, strain TMS4): > 16 µg/mL
MIC ([2]; Enterococcus faecium (vanA) vancomycin resistant, strain TMS5): 4 µg/mL (≈ 9.89 µM)
MIC ([2]; Enterococcus laecium (van B) vancomycin resistant, strain TMS6): > 16 µg/mL
MIC ([2]; Enterococcus laecium (van B) vancomycin resistant, strain TMS7): > 16 µg/mL
MIC Range [3, 8]: 0.032 to 16 µg/mL
MIC50 [3, 9]: 8 µg/mL (≈ 19.8 µM)
MIC90 [3, 9]: > 16 µg/mL
MIC50 [3, 8]: 0.063 µg/mL (≈ 0.156 µM)
MIC90 [3, 8]: 4 µg/mL (≈ 9.89 µM)
MIC50 ([4]; Citrobacter freundii): 0.125 µg/mL (≈ 0.309 µM)
MIC90 ([4]; Citrobacter freundii (n=39)): 2 µg/mL (≈ 4.95 µM)
MIC Range ([4]; Citrobacter freundii (n=39)): 0.016 to 2 µg/mL
MIC50 [5]: 0.032 µg/mL (≈ 0.0791 µM)
MIC Range [5]: 0.016 to 2 µg/mL
MIC90 ([5]; read-out: MIC90): 0.063 µg/mL (≈ 0.156 µM)
MIC50 ([6]; Serratia marcescens): 0.125 µg/mL (≈ 0.309 µM)
MIC90 ([6]; Serratia marcescens (n=30)): 1 µg/mL (≈ 2.47 µM)
MIC Range [7, 10]: 0.5 - 0.5 µg/ml
MIC50 [7, 11]: 32 µg/mL (≈ 79.1 µM)
MIC90 [7, 11]: 32 µg/mL (≈ 79.1 µM)
MIC50 [7, 10]: 0.5 µg/mL (≈ 1.24 µM)
MIC90 [7, 10]: 0.5 µg/mL (≈ 1.24 µM)

Source: patent EP1561465A2, “Methods of use of fluoroquinolone compounds against bacteria” (LG Life Sciences, Ltd., priority 1999, dated 2001)
